Data: ChEMBL document CHEMBL1159270, “Bruceosides D, E, and F, three new cytotoxic quassinoid glucosides from Brucea javanica” (1995)

Experiments:
Format in all cases: functional
CCRF-CEM = experiment: Growth inhibition of human CCRF-CEM cells
HL-60(TB) = experiment: Growth inhibition of human HL-60(TB) cells
K562 = experiment: Growth inhibition of human K562 cells
MOLT-4 = experiment: Growth inhibition of human MOLT4 cells
EKVX = experiment: Growth inhibition of human EKVX cells
HOP-62 = experiment: Growth inhibition of human HOP62 cells
HOP-92 = experiment: Growth inhibition of human HOP92 cells
NCI-H226 = experiment: Growth inhibition of human NCI-H226 cells
NCI-H23 = experiment: Growth inhibition of human NCI-H23 cells
NCI-H322M = experiment: Growth inhibition of human NCI-H322M cells
NCI-H460 = experiment: Growth inhibition of human NCI-H460 cells
NCI-H522 = experiment: Growth inhibition of human NCI-H522 cells
COLO 205 = experiment: Growth inhibition of human COLO205 cells
HCC 2998 = experiment: Growth inhibition of human HCC2998 cells
HCT-116 = experiment: Growth inhibition of human HCT116 cells
HCT-15 = experiment: Growth inhibition of human HCT15 cells
HT-29 = experiment: Growth inhibition of human HT-29 cells
KM12 = experiment: Growth inhibition of human KM12 cells
SW-620 = experiment: Growth inhibition of human SW620 cells
SF-268 = experiment: Growth inhibition of human SF268 cells
SF-539 = experiment: Growth inhibition of human SF539 cells
SNB-19 = experiment: Growth inhibition of human SNB19 cells
SNB-75 = experiment: Growth inhibition of human SNB75 cells
U-251 = experiment: Growth inhibition of human U251 cells
LOX IMVI = experiment: Growth inhibition of human LOXIMVI cells
Malme-3M = experiment: Growth inhibition of human MALME-3M cells
M14 = experiment: Growth inhibition of human M14 cells
SK-MEL-2 = experiment: Growth inhibition of human SK-MEL-2 cells
SK-MEL-28 = experiment: Growth inhibition of human SK-MEL-28 cells
SK-MEL-5 = experiment: Growth inhibition of human SK-MEL-5 cells
UACC-257 = experiment: Growth inhibition of human UACC257 cells
UACC-62 = experiment: Growth inhibition of human UACC62 cells
IGROV-1 = experiment: Growth inhibition of human IGROV1 cells
OVCAR-3 = experiment: Growth inhibition of human OVCAR-3 cells
OVCAR-4 = experiment: Growth inhibition of human OVCAR4 cells
OVCAR-5 = experiment: Growth inhibition of human OVCAR5 cells
OVCAR-8 = experiment: Growth inhibition of human OVCAR8 cells
SK-OV-3 = experiment: Growth inhibition of human SKOV3 cells
786-0 = experiment: Growth inhibition of human 786-0 cells
A498 = experiment: Growth inhibition of human A498 cells
ACHN = experiment: Growth inhibition of human ACHN cells
CAKI-1 = experiment: Growth inhibition of human Caki1 cells
RXF 393 = experiment: Growth inhibition of human RXF393 cells
SN12C = experiment: Growth inhibition of human SN12C cells
TK-10 = experiment: Growth inhibition of human TK10 cells
UO-31 = experiment: Growth inhibition of human UO31 cells
SR = experiment: Growth inhibition of human SR cells
A549 = experiment: Growth inhibition of human A549 cells
PC-3 = experiment: Growth inhibition of human PC3 cells
DU-145 = experiment: Growth inhibition of human DU145 cells
MCF7 = experiment: Growth inhibition of human MCF7 cells
[1] = Growth inhibition of human MCF7/ADR cells; settings: NCI/ADR-RES
MDA-MB-231 = experiment: Growth inhibition of human MDA-MB-231 cells
[2] = Growth inhibition of human Hs 578T cells
MDA-MB-435 = experiment: Growth inhibition of human MDA-MB-435 cells
MDA-N = experiment: Growth inhibition of human MDA-N cells
BT-549 = experiment: Growth inhibition of human BT549 cells
T47D = experiment: Growth inhibition of human T47D cells

CC(=O)OC(C)(C)/C(C)=C/C(=O)O[C@H]1C(=O)O[C@@H]2C[C@H]3[C@H](C)C(=O)C(O[C@@H]4O[C@H](CO)[C@@H](O)[C@H](O)[C@H]4O)=C[C@]3(C)[C@H]3[C@@H](O)[C@H](O)[C@]4(C(=O)O)OC[C@]32[C@@H]14 [BRUCEOSIDE F]
GI50 (CCRF-CEM): 43.7 µM | GI50 (HL-60(TB)): 47.9 µM | GI50 (K562): 39.8 µM | GI50 (MOLT-4): 33.9 µM | GI50 (EKVX): > 100 µM | GI50 (HOP-62): 69.2 µM | GI50 (HOP-92): 66.1 µM | GI50 (NCI-H226): 72.4 µM | GI50 (NCI-H23): > 100 µM | GI50 (NCI-H322M): > 100 µM | GI50 (NCI-H460): 39.8 µM | GI50 (NCI-H522): 18.6 µM | GI50 (COLO 205): > 100 µM | GI50 (HCC 2998): 36.3 µM | GI50 (HCT-116): 38 µM | GI50 (HCT-15): > 100 µM | GI50 (HT-29): > 100 µM | GI50 (KM12): > 100 µM | GI50 (SW-620): > 100 µM | GI50 (SF-268): > 100 µM | GI50 (SF-539): 56.2 µM | GI50 (SNB-19): > 100 µM | GI50 (SNB-75): > 100 µM | GI50 (U-251): > 100 µM | GI50 (LOX IMVI): > 100 µM | GI50 (Malme-3M): 56.2 µM | GI50 (M14): > 100 µM | GI50 (SK-MEL-2): > 100 µM | GI50 (SK-MEL-28): > 100 µM | GI50 (SK-MEL-5): > 100 µM | GI50 (UACC-257): > 100 µM | GI50 (UACC-62): > 100 µM | GI50 (IGROV-1): > 100 µM | GI50 (OVCAR-3): 25.7 µM | GI50 (OVCAR-4): > 100 µM | GI50 (OVCAR-5): > 100 µM | GI50 (OVCAR-8): > 100 µM | GI50 (SK-OV-3): > 100 µM | GI50 (786-0): > 100 µM | GI50 (A498): > 100 µM | GI50 (ACHN): > 100 µM | GI50 (CAKI-1): > 100 µM | GI50 (RXF 393): 37.2 µM | GI50 (SN12C): > 100 µM | GI50 (TK-10): > 100 µM | GI50 (UO-31): > 100 µM | GI50 (SR): 49 µM | GI50 (A549): > 100 µM | GI50 (PC-3): > 100 µM | GI50 (DU-145): > 100 µM | GI50 (MCF7): 27.5 µM | GI50 [1]: > 100 µM | GI50 (MDA-MB-231): > 100 µM | GI50 [2]: > 100 µM | GI50 (MDA-MB-435): > 100 µM | GI50 (MDA-N): > 100 µM | GI50 (BT-549): > 100 µM | GI50 (T47D): > 100 µM

CC(C)CC(=O)O[C@H]1C(=O)O[C@@H]2C[C@H]3[C@H](C)C(=O)C(O[C@@H]4O[C@H](CO)[C@@H](O)[C@H](O)[C@H]4O)=C[C@]3(C)[C@H]3[C@@H](O)[C@H](O)[C@]4(C(=O)O)OC[C@]32[C@@H]14 [BRUCEOSIDE E]
GI50 (CCRF-CEM): 24.5 µM | GI50 (HL-60(TB)): 41.7 µM | GI50 (K562): 24 µM | GI50 (MOLT-4): 19.1 µM | GI50 (EKVX): > 100 µM | GI50 (HOP-62): 44.7 µM | GI50 (HOP-92): 37.2 µM | GI50 (NCI-H226): 29.5 µM | GI50 (NCI-H23): > 100 µM | GI50 (NCI-H322M): > 100 µM | GI50 (NCI-H460): 27.5 µM | GI50 (NCI-H522): 2.19 µM | GI50 (COLO 205): > 100 µM | GI50 (HCC 2998): 20.4 µM | GI50 (HCT-116): 33.1 µM | GI50 (HCT-15): > 100 µM | GI50 (HT-29): 33.9 µM | GI50 (KM12): > 100 µM | GI50 (SW-620): > 100 µM | GI50 (SF-268): > 100 µM | GI50 (SF-539): 20.4 µM | GI50 (SNB-19): 31.6 µM | GI50 (SNB-75): > 100 µM | GI50 (U-251): 31.6 µM | GI50 (LOX IMVI): 38.9 µM | GI50 (Malme-3M): 22.9 µM | GI50 (M14): > 100 µM | GI50 (SK-MEL-2): > 100 µM | GI50 (SK-MEL-28): 25.1 µM | GI50 (SK-MEL-5): 28.2 µM | GI50 (UACC-257): > 100 µM | GI50 (UACC-62): > 100 µM | GI50 (IGROV-1): 35.5 µM | GI50 (OVCAR-3): 36.3 µM | GI50 (OVCAR-4): 1.91 µM | GI50 (OVCAR-5): > 100 µM | GI50 (OVCAR-8): > 100 µM | GI50 (SK-OV-3): > 100 µM | GI50 (786-0): > 100 µM | GI50 (A498): > 100 µM | GI50 (ACHN): > 100 µM | GI50 (CAKI-1): > 100 µM | GI50 (RXF 393): 10.7 µM | GI50 (SN12C): > 100 µM | GI50 (TK-10): > 100 µM | GI50 (UO-31): > 100 µM | GI50 (SR): 33.9 µM | GI50 (A549): 41.7 µM | GI50 (PC-3): > 100 µM | GI50 (DU-145): > 100 µM | GI50 (MCF7): 28.2 µM | GI50 [1]: > 100 µM | GI50 (MDA-MB-231): > 100 µM | GI50 [2]: 39.8 µM | GI50 (MDA-MB-435): > 100 µM | GI50 (MDA-N): > 100 µM | GI50 (BT-549): > 100 µM | GI50 (T47D): > 100 µM

CC(C)=CC(=O)O[C@H]1C(=O)O[C@@H]2C[C@H]3[C@H](C)C(=O)C(O[C@@H]4O[C@H](CO)[C@@H](O)[C@H](O)[C@H]4O)=C[C@]3(C)[C@H]3[C@@H](O)[C@H](O)[C@]4(C(=O)O)OC[C@]32[C@@H]14 [BRUCEOSIDE D]
GI50 (CCRF-CEM): 36.3 µM | GI50 (HL-60(TB)): 35.5 µM | GI50 (K562): 25.7 µM | GI50 (MOLT-4): 22.4 µM | GI50 (EKVX): > 100 µM | GI50 (HOP-62): 33.1 µM | GI50 (HOP-92): 31.6 µM | GI50 (NCI-H226): 28.2 µM | GI50 (NCI-H23): > 100 µM | GI50 (NCI-H322M): > 100 µM | GI50 (NCI-H460): 32.4 µM | GI50 (NCI-H522): 28.8 µM | GI50 (COLO 205): > 100 µM | GI50 (HCC 2998): 24.5 µM | GI50 (HCT-116): 29.5 µM | GI50 (HCT-15): > 100 µM | GI50 (HT-29): 35.5 µM | GI50 (KM12): 49 µM | GI50 (SW-620): > 100 µM | GI50 (SF-268): > 100 µM | GI50 (SF-539): 26.3 µM | GI50 (SNB-19): 31.6 µM | GI50 (SNB-75): > 100 µM | GI50 (U-251): 39.8 µM | GI50 (LOX IMVI): 40.7 µM | GI50 (Malme-3M): 24 µM | GI50 (M14): 32.4 µM | GI50 (SK-MEL-2): > 100 µM | GI50 (SK-MEL-28): 37.2 µM | GI50 (SK-MEL-5): 42.7 µM | GI50 (UACC-257): > 100 µM | GI50 (UACC-62): > 100 µM | GI50 (IGROV-1): > 100 µM | GI50 (OVCAR-3): 20.4 µM | GI50 (OVCAR-4): 25.1 µM | GI50 (OVCAR-5): > 100 µM | GI50 (OVCAR-8): > 100 µM | GI50 (SK-OV-3): > 100 µM | GI50 (786-0): > 100 µM | GI50 (A498): > 100 µM | GI50 (ACHN): > 100 µM | GI50 (CAKI-1): > 100 µM | GI50 (RXF 393): 25.1 µM | GI50 (SN12C): > 100 µM | GI50 (TK-10): > 100 µM | GI50 (UO-31): 31.6 µM | GI50 (SR): 30.9 µM | GI50 (A549): 55 µM | GI50 (PC-3): > 100 µM | GI50 (DU-145): > 100 µM | GI50 (MCF7): 22.4 µM | GI50 [1]: > 100 µM | GI50 (MDA-MB-231): > 100 µM | GI50 [2]: > 100 µM | GI50 (MDA-MB-435): > 100 µM | GI50 (MDA-N): > 100 µM | GI50 (BT-549): > 100 µM | GI50 (T47D): > 100 µM
